Data taken from paper PMC6895180 (Nature Communications, 2019).
Where “and” joins values, the source holds several entries; their conditions need not be identical. Equal values may be shown once. Read-outs that look alike come from different tables or passages of the source.

Columns and labels:
[1] = tested on: T. brucei BSF s427 wildtype cells; assay: Growth assays of T. brucei (trypanocidal/trypanostatic effect); assay type: cell-based, Trypanosoma brucei
Method: Growth assays of T. brucei
To test the effect of the novel adenosine analogues on the growth of T. brucei BSF, s427 wildtype cells were seeded at 1×10^5 cells mL-1 in 5 mL of HMI-9 medium with 10% FBS and treated with compounds […]
cells were also incubated in drug-free medium under the same conditions. 2 μM of 2’-deoxycoformycin were added to all cultures to avoid any potential effect of serum adenosine deaminase on the activity of test compounds and cordycepin.1
Cells were manually counted in Neubauer chambers at 0, 2, 4, 6, 8, 12, 24, 36 and 48 h after addition of […]
the drugs. […]
After 6 and 12 h after addition of drugs, approximately 2×10^6 cells were harvested from each group and applied to glass slides pre-treated with poly-L-lysine, left to settle for 5 min and fixed with 4% formaldehyde for 4 min. The formaldehyde was neutralised by addition of 100 mM glycine (20 min).
Cells were washed once with PBS and blocked for 1 h with 1% BSA/0.2% Tween-20 in PBS. Cells were […]

P2 transporter (TbAT1) = P2 transporter (TbAT1) (Trypanosoma brucei brucei, UniProt Q9Y0I0); assay: cell-based; settings: for Ki: P2 transporter Ki
Method: Non-specific association of radiolabel with the cell pellet was determined using an identical incubation in the presence of saturating (1 mM) unlabelled adenosine.

T. brucei Squib 427 = assay: microbe, parasite or virus in culture; assay type: cell-based, Trypanosoma brucei brucei; settings: for EC50: Trypanosoma brucei
Method: Drug susceptibility tests with Lister 427WT, TbAT1-KO[48], B48[26] and ISMR1[27] were performed using an assay based on the viability indicator dye resazurin in 96-well plates, each well containing 2 × 10^4 cells. The plates were incubated for 48 h with a doubling dilution series of the test compounds in HMI-9/fetal bovine serum at 37 °C/5% CO2 (23 dilutions starting at 100 µM, except for the pentamidine control (50 µM)), after which resazurin (20 µL of 125 µg mL^−1 resazurin sodium salt solution was added to each well (containing 200 µL of cells and test compound)) was added to each well and the plates incubated for another 24 h. Fluorescence was determined using a FLUOstar Optima (BMG Labtech, Durham, NC) and the results fitted to a sigmoid curve with variable slope using Prism 5.0 or Prism 7.04 (GraphPad, San Diego, CA).
Susceptibility assays with T. brucei Squib 427[49] or T. b. rhodesiense STIB-900[50] were performed under similar conditions as above, but using 10 concentrations of a 4-fold compound dilution series starting at 64 µM. Trypanosoma brucei Squib 427 was seeded at 1.5 × 10^4 parasites/well and T. b. rhodesiense at 4 × 10^3 parasites per well, followed by the addition of resazurin (final concentration of 10 µg mL^−1) after 24 h (T. brucei) or 6 h (T. b. rhodesiense).

Sequence of P2 transporter (TbAT1) (Q9Y0I0 entry or part of it): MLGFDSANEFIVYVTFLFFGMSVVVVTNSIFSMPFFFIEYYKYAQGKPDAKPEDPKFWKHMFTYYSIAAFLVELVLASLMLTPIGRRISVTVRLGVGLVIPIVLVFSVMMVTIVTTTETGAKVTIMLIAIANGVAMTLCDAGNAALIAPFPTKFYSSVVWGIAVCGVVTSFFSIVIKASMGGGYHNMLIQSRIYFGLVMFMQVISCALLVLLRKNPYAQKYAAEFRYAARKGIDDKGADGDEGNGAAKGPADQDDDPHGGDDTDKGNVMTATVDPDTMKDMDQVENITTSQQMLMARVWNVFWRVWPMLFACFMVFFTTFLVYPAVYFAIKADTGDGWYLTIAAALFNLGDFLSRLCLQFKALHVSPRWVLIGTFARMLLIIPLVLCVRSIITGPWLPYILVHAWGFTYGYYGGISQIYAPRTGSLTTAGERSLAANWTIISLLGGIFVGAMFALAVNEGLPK

`Nc1ncnc2c1c(Br)cn2[C@@H]1O[C@H](CO)C[C@H]1O` [Compound 10, 3’-deoxy-7-Br-tubercidin] was tested, and the “AVG of cells/mL” value ([1]; 2xEC50, 2 h, experiment 1) was 128750 cells/mL, the Cells/mL ([1]; 2xEC50, 2 h, experiment 1) was 137500 Cells/mL and 120000 Cells/mL and the Counts ([1]; 2xEC50, 2 h, experiment 1) was 55 and 48. The “AVG of cells/mL” value ([1]; 2xEC50, 2 h, experiment 2) was 145000 cells/mL, the Cells/mL ([1]; 2xEC50, 2 h, experiment 2) was 147500 Cells/mL and 142500 Cells/mL and the Counts ([1]; 2xEC50, 2 h, experiment 2) was 59 and 57. The “AVG of cells/mL” value ([1]; 2xEC50, 4 h, experiment 1) was 143750 cells/mL, the Cells/mL ([1]; 2xEC50, 4 h, experiment 1) was 162500 Cells/mL and 125000 Cells/mL and the Counts ([1]; 2xEC50, 4 h, experiment 1) was 50 and 65. The “AVG of cells/mL” value ([1]; 2xEC50, 4 h, experiment 2) was 148750 cells/mL, the Cells/mL ([1]; 2xEC50, 4 h, experiment 2) was 160000 Cells/mL and 137500 Cells/mL and the Counts ([1]; 2xEC50, 4 h, experiment 2) was 55 and 64. The “AVG of cells/mL” value ([1]; 2xEC50, 6 h, experiment 1) was 172500 cells/mL, the Cells/mL ([1]; 2xEC50, 6 h, experiment 1) was 177500 Cells/mL and 167500 Cells/mL and the Counts ([1]; 2xEC50, 6 h, experiment 1) was 71 and 67. The “AVG of cells/mL” value ([1]; 2xEC50, 6 h, experiment 2) was 203750 cells/mL, the Cells/mL ([1]; 2xEC50, 6 h, experiment 2) was 192500 Cells/mL and 215000 Cells/mL and the Counts ([1]; 2xEC50, 6 h, experiment 2) was 77 and 86. The “AVG of cells/mL” value ([1]; 2xEC50, 8 h, experiment 1) was 183750 cells/mL, the Cells/mL ([1]; 2xEC50, 8 h, experiment 1) was 177500 Cells/mL and 190000 Cells/mL and the Counts ([1]; 2xEC50, 8 h, experiment 1) was 71 and 76. The “AVG of cells/mL” value ([1]; 2xEC50, 8 h, experiment 2) was 206250 cells/mL, the Cells/mL ([1]; 2xEC50, 8 h, experiment 2) was 215000 Cells/mL and 197500 Cells/mL and the Counts ([1]; 2xEC50, 8 h, experiment 2) was 86 and 79. For the same molecule, the “AVG of cells/mL” value ([1]; 2xEC50, 12 h, experiment 1) was 163750 cells/mL, the Cells/mL ([1]; 2xEC50, 12 h, experiment 1) was 195000 Cells/mL and 132500 Cells/mL and the Counts ([1]; 2xEC50, 12 h, experiment 1) was 78 and 53. The “AVG of cells/mL” value ([1]; 2xEC50, 12 h, experiment 2) was 143750 cells/mL, the Cells/mL ([1]; 2xEC50, 12 h, experiment 2) was 160000 Cells/mL and 127500 Cells/mL and the Counts ([1]; 2xEC50, 12 h, experiment 2) was 64 and 51. For the same molecule, the “AVG of cells/mL” value ([1]; 2xEC50, 24 h, experiment 1) was 103750 cells/mL, the Cells/mL ([1]; 2xEC50, 24 h, experiment 1) was 125000 Cells/mL and 82500 Cells/mL and the Counts ([1]; 2xEC50, 24 h, experiment 1) was 50 and 33. For the same molecule, the “AVG of cells/mL” value ([1]; 2xEC50, 24 h, experiment 2) was 15000 cells/mL, the Cells/mL ([1]; 2xEC50, 24 h, experiment 2) was 15000 Cells/mL and the Counts ([1]; 2xEC50, 24 h, experiment 2) was 6. For the same molecule, the “AVG of cells/mL” value ([1]; 2xEC50, 36 h, experiment 1) was 103750 cells/mL, the Cells/mL ([1]; 2xEC50, 36 h, experiment 1) was 107500 Cells/mL and 100000 Cells/mL and the Counts ([1]; 2xEC50, 36 h, experiment 1) was 43 and 40. For the same molecule, the “AVG of cells/mL” value ([1]; 2xEC50, 36 h, experiment 2) was 7500 cells/mL, the Cells/mL ([1]; 2xEC50, 48 h, experiment 1) was 0 Cells/mL and the Counts ([1]; 2xEC50, 48 h, experiment 1) was 0. For the same molecule, the “AVG of cells/mL” value ([1]; 2xEC50, 48 h, experiment 2) was 0 cells/mL, the Cells/mL ([1]; 2xEC50, 48 h, experiment 2) was 0 Cells/mL and the Counts ([1]; 2xEC50, 48 h, experiment 2) was 0. The “effect on T. brucei bloodstream forms in culture (cidal/static)” value ([1]; 2× and 5× EC50) was “trypanocidal”, the “AVG of cells/mL” value ([1]; 5xEC50, 2 h, experiment 1) was 138750 cells/mL and the Cells/mL ([1]; 5xEC50, 2 h, experiment 1) was 132500 Cells/mL and 145000 Cells/mL. The Counts ([1]; 5xEC50, 2 h, experiment 1) was 53 and 58, the “AVG of cells/mL” value ([1]; 5xEC50, 2 h, experiment 2) was 140000 cells/mL and the Cells/mL ([1]; 5xEC50, 2 h, experiment 2) was 137500 Cells/mL and 142500 Cells/mL. The Counts ([1]; 5xEC50, 2 h, experiment 2) was 55 and 57, the “AVG of cells/mL” value ([1]; 5xEC50, 4 h, experiment 1) was 152500 cells/mL and the Cells/mL ([1]; 5xEC50, 4 h, experiment 1) was 150000 Cells/mL and 155000 Cells/mL. The Counts ([1]; 5xEC50, 4 h, experiment 1) was 62 and 60, the “AVG of cells/mL” value ([1]; 5xEC50, 4 h, experiment 2) was 153750 cells/mL and the Cells/mL ([1]; 5xEC50, 4 h, experiment 2) was 160000 Cells/mL and 147500 Cells/mL. The Counts ([1]; 5xEC50, 4 h, experiment 2) was 59 and 64, the “AVG of cells/mL” value ([1]; 5xEC50, 6 h, experiment 1) was 171250 cells/mL and the Cells/mL ([1]; 5xEC50, 6 h, experiment 1) was 167500 Cells/mL and 175000 Cells/mL. For the same molecule, the Counts ([1]; 5xEC50, 6 h, experiment 1) was 67 and 70, the “AVG of cells/mL” value ([1]; 5xEC50, 6 h, experiment 2) was 140000 cells/mL and the Cells/mL ([1]; 5xEC50, 6 h, experiment 2) was 155000 Cells/mL and 125000 Cells/mL. The Counts ([1]; 5xEC50, 6 h, experiment 2) was 62 and 50, the “AVG of cells/mL” value ([1]; 5xEC50, 8 h, experiment 1) was 131250 cells/mL and the Cells/mL ([1]; 5xEC50, 8 h, experiment 1) was 130000 Cells/mL and 132500 Cells/mL. For the same molecule, the Counts ([1]; 5xEC50, 8 h, experiment 1) was 52 and 53, the “AVG of cells/mL” value ([1]; 5xEC50, 8 h, experiment 2) was 146250 cells/mL and the Cells/mL ([1]; 5xEC50, 8 h, experiment 2) was 142500 Cells/mL and 150000 Cells/mL. For the same molecule, the Counts ([1]; 5xEC50, 8 h, experiment 2) was 57 and 60, the “AVG of cells/mL” value ([1]; 5xEC50, 12 h, experiment 1) was 98750 cells/mL and the Cells/mL ([1]; 5xEC50, 12 h, experiment 1) was 107500 Cells/mL and 90000 Cells/mL. For the same molecule, the Counts ([1]; 5xEC50, 12 h, experiment 1) was 43 and 36, the “AVG of cells/mL” value ([1]; 5xEC50, 12 h, experiment 2) was 95000 cells/mL and the Cells/mL ([1]; 5xEC50, 12 h, experiment 2) was 92500 Cells/mL and 97500 Cells/mL. For the same molecule, the Counts ([1]; 5xEC50, 12 h, experiment 2) was 37 and 39, the “AVG of cells/mL” value ([1]; 5xEC50, 24 h, experiment 1) was 28750 cells/mL and the Cells/mL ([1]; 5xEC50, 24 h, experiment 1) was 27500 Cells/mL and 30000 Cells/mL. For the same molecule, the Counts ([1]; 5xEC50, 24 h, experiment 1) was 11 and 12, the “AVG of cells/mL” value ([1]; 5xEC50, 24 h, experiment 2) was 7500 cells/mL and the Cells/mL ([1]; 5xEC50, 24 h, experiment 2) was 7500 Cells/mL. For the same molecule, the Counts ([1]; 5xEC50, 24 h, experiment 2) was 3, the “AVG of cells/mL” value ([1]; 5xEC50, 36 h, experiment 1) was 18750 cells/mL and the Cells/mL ([1]; 5xEC50, 36 h, experiment 1) was 12500 Cells/mL and 25000 Cells/mL. For the same molecule, the Counts ([1]; 5xEC50, 36 h, experiment 1) was 5 and 10, the “AVG of cells/mL” value ([1]; 5xEC50, 36 h, experiment 2) was 1250 cells/mL and the Cells/mL ([1]; 5xEC50, 48 h, experiment 1) was 0 Cells/mL. For the same molecule, the Counts ([1]; 5xEC50, 48 h, experiment 1) was 0, the “AVG of cells/mL” value ([1]; 5xEC50, 48 h, experiment 2) was 0 cells/mL and the Cells/mL ([1]; 5xEC50, 48 h, experiment 2) was 0 Cells/mL. For the same molecule, the Counts ([1]; 5xEC50, 48 h, experiment 2) was 0, the “P2 transporter ΔG^0” value (P2 transporter (TbAT1); Gibbs free energy from −RT ln(Ki)) was -8.58 kcal/mol and the IC50 (P2 transporter (TbAT1); P2 transporter IC50, single experiments, [L] 0.033 or 0.1 per experiment) was 620 nM and 790 nM and 250 nM. For the same molecule, the Ki (P2 transporter (TbAT1); AVG, source data) was 500 nM, the Ki (P2 transporter (TbAT1); inhibition of [3H]adenosine uptake, mean ± SEM, n = 3) was 502 ± 140 nM and the Ki (P2 transporter (TbAT1); single experiments, Cheng–Prusoff from IC50) was 520 nM and 740 nM and 240 nM. For the same molecule, the “P2 transporter δ(ΔG^0)” value (P2 transporter (TbAT1); in comparison to adenosine) was -0.024 kcal/mol, the EC50 (T. brucei Squib 427; Alamar blue cell viability assay, mean and SEM, read-out: T. b. brucei EC50) was 1.3 ± 0.3 nM and the EC50 (T. brucei Squib 427; source data, read-out: T. brucei brucei EC50, Average) was 1.29 nM. For the same molecule, the “SI (MRC/T.b. brucei)” value (T. brucei Squib 427; selectivity index) was 11,462.
